Experimental data published in the RepoRT retention time repository.

Experiment: HILIC, Waters ACQUITY UPLC BEH Amide, 100 × 2.1 mm, 1.7 µm; A: water + 0.125% formic acid + 10 mM ammonium formate; B: 5% water + 95% acetonitrile + 0.125% formic acid + 10 mM ammonium formate; gradient (min/%B) 0/100 2/100 7.7/70 9.5/40 10.25/30 12.75/100 17/100
Details: stereoisomer not certain

| LC retention time | SMILES |
| --- | --- |
| 5.18 min | COc1ccc(CC(C)NCC(O)c2ccc(O)c(NC=O)c2)cc1 (stereo unspecified) [Formoterol] |
| 8.52 min | NC(CCC(=O)NC(Cc1ccc(O)cc1)C(=O)O)C(=O)O (stereo unspecified) [gamma-Glutamyltyrosine] |
| 6.41 min | Nc1nc2[nH]c(=O)cnc2c(=O)[nH]1 [Isoxanthopterin] |
| 8.15 min | NC(N)=NCCC(=O)O [3-Guanidinopropionic acid] |
| 1.11 min | c1ccc2scnc2c1 [Benzothiazole] |
| 9.49 min | Cn1cncc1CC(NC(=O)CCN)C(=O)O (stereo unspecified) [Anserine] |
| 5.37 min | CCC(=O)NCC(=O)O [2-Propanamidoacetic acid] |
| 7.24 min | NCCCCC(=O)O [5-Aminovaleric acid] |
| 7.49 min | Nc1ccc(C(=O)O)cc1 [4-Aminobenzoic acid] |
| 8.15 min | CN(CC(=O)O)C(=N)N [Creatine] |
| 4.61 min | CC(=O)OCC1OC(Oc2c(-c3ccc(O)c(O)c3)oc3cc(O)cc(O)c3c2=O)C(O)C(O)C1O (stereo not drawn) [Quercetin-3-O-beta-glucopyranosyl-6'-acetate] |
| 1.07 min | CCCCCC(O)C=CC=O (stereo unspecified) [4-Hydroxynonenal] |
| 1.19 min | COc1cc(-c2ccc(=O)[nH]n2)ccc1OC(F)F [Zardaverine] |
| 1.08 min | O=c1ccc2ccccc2o1 [Coumarin] |
| 1.02 min | CN1C(C(=O)Nc2ccccn2)=C(O)c2ccccc2S1(=O)=O [Piroxicam] |
| 1.87 min | CCCCc1oc2ccccc2c1C(=O)c1cc(I)c(OCCN(CC)CC)c(I)c1 [Amiodarone] |
| 0.99 min | CCCCCCCCCCCCCCCC(=O)OC(CO)CO [2-Palmitoylglycerol] |
| 6.92 min | O=C(O)C1CSCN1 (stereo unspecified) [Thiazolidine-4-carboxylic acid] |
| 1.6 min | Cc1[nH]c(=O)c(C#N)cc1-c1ccncc1 [Milrinone] |
| 7.3 min | CC(C)=CCCC(C)O (stereo unspecified) [6-Methyl-5-hepten-2-ol] |
| 2.24 min | COC1C(O)C(CO)OC1n1ccc(=O)[nH]c1=O (stereo unspecified) [2'-O-Methyluridine] |
| 4.23 min | CNC(Cc1ccc(O)cc1)C(=O)[O-] (stereo unspecified) [Methyltyrosinate] |
| 3.65 min | CCn1cc(C(=O)O)c(=O)c2cc(F)c(N3CCN(C)CC3)cc21 [Pefloxacin] |
| 1.47 min | O=C1CCCC(=O)C1 [1,3 Cyclohexanedione] |
| 1.63 min | CCCCCCc1ccc(O)cc1O [4-Hexylresorcinol] |
| 7.61 min | NC(Cc1ccc(O)cc1)C(=O)O (stereo unspecified) [Tyrosine] |
| 9.18 min | NCC(=O)NCC(=O)NCC(=O)O [Gly-Gly-Gly] |

| LC retention time | SMILES |
| --- | --- |
| 1.9 min | CC(C)(CO)C(O)C(=O)NCCCO (stereo unspecified) [Panthenol] |
| 5.77 min | CCCC(=O)OC(CC(=O)[O-])C[N+](C)(C)C [(R)-Butyrylcarnitine] |
| 7.24 min | C[N+](C)(C)CC(=O)[O-] [Betaine] |
| 1.02 min | CC(=O)OCCc1ccccc1 [Phenethylacetate] |
| 1.01 min | CC(=O)C1(O)CCC2C3CC(C)C4=CC(=O)CCC4(C)C3CCC21C (stereo unspecified) [Medroxyprogesterone] |
| 1.03 min | O=[N+]([O-])c1cccc2cn[nH]c12 [7-Nitroindazole] |
| 2.87 min | CC1CN(CCCn2c3ccccc3c3ccccc32)CC(C)N1 (stereo unspecified) [Rimcazole] |
| 1.13 min | NC(=O)N1c2ccccc2CC(=O)c2ccccc21 [Trileptal] |
| 4.19 min | COc1cc(C)c(Cc2cnc(N)nc2N)cc1OC [Ormetroprim] |
| 3.23 min | CSCCC(NC(C)=O)C(=O)O (stereo unspecified) [N-Acetylmethionine] |
| 1.44 min | O=C1OC(C(O)CO)C(O)=C1O (stereo unspecified) [Ascorbic acid] |
| 7.67 min | CN(Cc1cnc2nc(N)nc(N)c2n1)c1ccc(C(=O)NC(CCC(=O)O)C(=O)O)cc1 (stereo unspecified) [Methotrexate] |
| 8.15 min | O=C1OC(CO)C(O)C(O)C1O (stereo unspecified) [Gluconolactone] |
| 1.26 min | CC1CC2C3CCC4=CC(=O)C=CC4(C)C3(Cl)C(O)CC2(C)C1(O)C(=O)CO (stereo unspecified) [Beclomethasone] |
| 3.33 min | Nc1c2c(nc3c1CCC3)CCCC2 [Ipidacrine] |
| 1.25 min | CC12CCC(=O)C=C1CCC1C2C(O)CC2(C)C(C(=O)CO)CCC12 (stereo unspecified) [Corticosterone] |
| 2.99 min | CC(CO)CCNc1ncnc2nc[nH]c12 (stereo unspecified) [Dihydrozeatin] |
| 7.83 min | CC(C)CC(NC(=O)C(COC(C)(C)C)NC(=O)C(Cc1ccc(O)cc1)NC(=O)C(CO)NC(=O)C(Cc1c[nH]c2ccccc12)NC(=O)C(Cc1cnc[nH]1)NC(=O)C1CCC(=O)N1)C(=O)NC(CCCN=C(N)N)C(=O)N1CCCC1C(=O)NNC(N)=O (stereo unspecified) [Goserelin] |
| 2.33 min | CN1CCC(=C2c3ccccc3CCc3sccc32)CC1 [Pizotifen] |
| 2.49 min | CC1COc2c(C3(N)CC3)c(F)cc3c(=O)c(C(=O)O)cn1c23 (stereo unspecified) [Pazufloxacin] |
| 4.99 min | O=c1[nH]cnc2nc[nH]c12 [Hypoxanthine] |
| 1.37 min | CC(=O)Nc1ccc(O)cc1 [Acetaminophen] |
| 2.65 min | CC(Oc1c(Cl)cccc1Cl)C1=NCCN1 (stereo unspecified) [Lofexidine] |
| 5.59 min | NC(N)=Nc1nc(CSCCC(N)=NS(N)(=O)=O)cs1 [Famotidine] |
| 4.36 min | O=C(CO)c1ccccc1 [2-Hydroxyacetophenone] |
| 5.45 min | CC1CNc2c(cccc2S(=O)(=O)NC(CCCN=C(N)N)C(=O)N2CCC(C)CC2C(=O)O)C1 (stereo unspecified) [Argatroban] |
| 9.3 min | CC(C)C(NC(=O)C(N)CCCN=C(N)N)C(=O)O (stereo unspecified) [Arg-Val] |

| LC retention time | SMILES |
| --- | --- |
| 1.16 min | CC(CCC(=O)O)C1CCC2C3C(=O)CC4CC(=O)CCC4(C)C3CC(=O)C12C (stereo unspecified) [Dehydrocholic acid] |
| 7.7 min | O=S(=O)(O)CCNC(CO)(CO)CO [TES] |
| 7.18 min | CCC(C)C(N)C(=O)O (stereo unspecified) [Isoleucine] |
| 7.19 min | OCC1OC(OCC2OC(O)C(O)C(O)C2O)C(O)C(O)C1O (stereo unspecified) [Isomaltose] |
| 8.05 min | OCC1OC(OC2(CO)OC(CO)C(O)C2O)C(O)C(O)C1O (stereo unspecified) [Sucrose] |
| 8.18 min | CC(=O)N[C@@H](CCC(N)=O)C(=O)O [N-Acetyl-L-glutamine] |
| 1.08 min | O=C(O)Cc1ccccc1Nc1c(Cl)cccc1Cl [Diclofenac] |
| 4.32 min | COc1cc(-c2oc3cc(O)cc(O)c3c(=O)c2OC2OC(CO)C(O)C(O)C2O)cc(OC)c1O (stereo unspecified) [Syringetin-3-O-glucoside] |
| 9.77 min | NCC(O)CCC(N)C(=O)O (stereo unspecified) [delta-Hydroxylysine] |
| 1.05 min | c1ccc2c(-c3nccs3)c[nH]c2c1 [Camalexin] |
| 4.7 min | CC1OC(Oc2c(-c3ccc(O)c(O)c3)oc3cc(O)cc(O)c3c2=O)C(O)C(O)C1O (stereo unspecified) [Quercetin-3-ramnoside] |
| 1.07 min | C=CCC1C=C(C)CC(C)CC(OC)C2OC(O)(C(=O)C(=O)N3CCCCC3C(=O)OC(C(C)=CC3CCC(O)C(OC)C3)C(C)C(O)CC1=O)C(C)CC2OC (stereo unspecified) [Tacrolimus] |
| 1.11 min | CC(C=CC1=C(C)CCCC1(C)C)=CC=CC(C)=CC(=O)O [Retinoic acid] |
| 4.62 min | Nc1[nH]c(=O)ncc1F [5-Flurocytosine] |
| 4.29 min | COc1cc2nc(N(C)CCCNC(=O)C3CCCO3)nc(N)c2cc1OC (stereo unspecified) [Alfuzosin] |
| 1.24 min | COc1ccc2[nH]cc(CCNC(C)=O)c2c1 [Melatonin] |
| 9.9 min | NCCCCC(NC(=O)C(N)CCC(=O)O)C(=O)O (stereo unspecified) [Glu-Lys] |
| 3.94 min | Cc1ccsc1C(=CCCN1CCCC(C(=O)O)C1)c1sccc1C (stereo unspecified) [Tiagabine] |
| 7.89 min | CC(NC(=O)C(Cc1ccc(O)cc1)NC(=O)CN)C(=O)O (stereo not drawn) [Gly-Tyr-Ala] |
| 1 min | COc1ccc(-c2cc(=O)c3c(OC)c(OC)c(OC)c(OC)c3o2)cc1OC [Nobiletin] |
| 4.89 min | CCCC(N)C(=O)O (stereo unspecified) [Norvaline] |
| 7.98 min | NC(C(=O)NC1C(=O)N2C(C(=O)O)=C(CSc3cn[nH]n3)CSC12)c1ccc(O)cc1 (stereo unspecified) [Cefatrizine] |
| 2.84 min | CC(C)C(=O)C(=O)O [Ketoisovaleric acid] |
| 8.1 min | CC(C)CC(NC(=O)CCC(N)C(=O)O)C(=O)O (stereo unspecified) [gamma-Glutamylleucine] |
| 0.98 min | N#Cc1ccc(C(c2ccc(C#N)cc2)n2cncn2)cc1 [Letrozol] |

| SMILES | LC retention time |
| --- | --- |
| C=C1CC2C(CCC3(C)C(=O)CCC23)C2(C)C=CC(=O)C=C12 (stereo unspecified) [Exemestane] | 0.98 min |
| CC(=O)CCCCn1c(=O)c2c(ncn2C)n(C)c1=O [Pentoxifylline] | 1.09 min |
| CC(NC(C)(C)C)C(=O)c1cccc(Cl)c1 (stereo unspecified) [Bupropion] | 2.22 min |
| CS(=O)CCCCN=C=S (stereo unspecified) [Sulforaphane] | 1.14 min |
| CCCCCCCCOC(=O)c1ccccc1C(=O)OCCCCCCCC [Dioctyl Phthalate] | 0.96 min |
| CCOC(=O)C1(c2ccccc2)CCN(CCC(C#N)(c2ccccc2)c2ccccc2)CC1 [Diphenoxylate] | 1.41 min |
| O=C1CN=C(c2ccccc2)c2cc([N+](=O)[O-])ccc2N1 [Nitrazepam] | 1.2 min |
| CCNC(C)Cc1cccc(C(F)(F)F)c1 (stereo unspecified) [Fenfluramine] | 2.33 min |
| CN1C2CCC1C(C(=O)O)C(O)C2 (stereo unspecified) [Ecgonine] | 7.61 min |
| CCOC(=O)c1cncn1C(C)c1ccccc1 (stereo unspecified) [Etomidate] | 0.98 min |
| NC(=O)CS(=O)C(c1ccccc1)c1ccccc1 (stereo unspecified) [Modafinil] | 1.27 min |
| CN=C1CN(O)C(c2ccccc2)=c2cc(Cl)ccc2=N1 [Chlordiazepoxide] | 1.35 min |
